Data from patent publication USRE49444E1, “Method of treating osteoporosis comprising administration of PTHrP analog” (priority 2006, dated 2023).
Where two headings read alike, the source gives them in different places.

How the values were obtained:
[1] = test system: Bacteria and Yeasts/moulds; assay: Preservative effectiveness test (European Pharmacopoeia 5.1.3), overall result; format: cell-based; conditions: for preservative efficacy: after 3 and 4.5 months storage; for Preservative effectiveness test Results: after manufacturing
Procedure: (§1) Solutions were prepared at room temperature, by dissolution of the various ingredients in water for injection, with stirring over <30 minutes to ensure complete dissolution, Solutions were filtered through 0.2 micron filter and filled into glass vials, to which a rubber stopper was applied and crimped in place to ensure complete closure.
The solutions were then stored for up to 3 months at 25° C., and up to 4.5 months at 5° C. and the preservative effectiveness test repeated. as described in Example 5.

Staphylococcus aureus = assay: Preservative effectiveness test, plate-count method; format: cell-based; conditions: after 3 and 4.5 months storage
[2] = Chemical stability of different formulations (SEQ ID NO.: 2 content); format: physicochemical; conditions: Table 6 formulations
Procedure: as §1
Table 6 details the chemical stability of the formulations described in Example 4.

[3] = test system: serum PD markers (total and ionized calcium, phosphorus, PTH(1-84), 1,25-dihydroxyvitamin D, P1NP, CTX); format: in vivo, human
Description: Predose Days: Days −30 and −2
PTH(1-84) and 1,25-dihydroxyvitamin D (vitamin D):
Procollagen Type 1 N-Propeptide (P1NP) and C-Telopeptide
Predose (Day −2), Days 3, 8, and 14.
(§2) The data for each PD marker in serum (total and ionized calcium, phosphorus, PTH(1-84), 1,25-dihydroxyvitamin D, P1NP, and CTX) and in urine (calcium, phosphorus, c-AMP, and creatinine) following SEQ ID NO.: 2 and placebo doses were listed for each subject and summarized by SEQ ID NO.: 2 dose using descriptive statistics (mean, SD, CV %, SEM, N, min, max, and median).

[4] = test system: urine PD markers (calcium, phosphorus, c-AMP, creatinine); assay: Clinical study: pharmacodynamic markers in urine; format: in vivo, human
Procedure: Urine PD Samples (Calcium Phosphorus Cyclic AMP [c-AMP], and Creatinine) were Obtained at the Following Time Points:
Day −1/Day 1: −24 to −18 hours, −18 to −12 hours, and −12 hours to 0 hours.
Days 1 and 7: 0 to 6 hours, 6 to 12 hours, and 12 to 24 hours.
The following parameters in urine were presented for each of the PD markers using SAS® Version 8.2: Volume (Vol.), concentration (Conc.), amount (Ae), cumulative amount (Cum. Ae), and excretion rates.
as §2

[5] = human, in vivo
Procedure: (§3) A randomized, double-blind, placebo-controlled, multiple-dose design study of Glu^22,25, Leu^23,28,31, Aib^29, Lys^263]hPTHrP(1-34)NH2 (SEQ ID NO.: 2) was conducted at 2 sites. A total of 39 eligible subjects were sequentially enrolled into 1 of 4 study groups consisting of 10 subjects each, with the exception of Group 2, which had 9 subjects. Within each study group, 8 subjects were randomly assigned to receive SEQ ID NO.: 2 and 2 subjects were randomly assigned to receive placebo (In Group 2 only, 1 subject received placebo). All subjects in the study were judged by the investigator to be healthy, normal volunteers. The test products were Glu^22,25, Leu^23,28,31, Aib^29, Lys^26,30]hPTHrP(1-34)NH2 (SEQ ID NO.: 2) (0.1 mg/vial) and Placebo (0.9% sodium chloride injection, USP). All subjects received a single subcutaneous (SC) dose of Glu^22,25, Leu^23,28,31, Aib^29, Lys^26,30]hPTHrP(1-34)NH2 (SEQ ID NO.: 2) or placebo for 7 days.
(§4) Criteria for Evaluation: Pharmacokinetics: PK sampling for plasma SEQ ID NO.: 2 on Days 1 and 7 was performed at the following time points: Predose (0 hour), 0.25, 0.5, 1, 1.5, 2, 3, 4, 6, 8, 12, and 24 hours postdose. Additionally, predose samples were taken for trough drug analysis on Days 3 to 6. The following PK parameters were computed for Days 1 and 7: AUC(0-t), AUC(0-∞) (Day 1 only), AUC(0-τ), AUCR (Day 1 only), Cmax, Tmax, Tlast, CL/F, Kel, t1/2, and AI (Day 7 only). These parameters were calculated from the overall (24 hours) plasma concentration-versus-time profiles by noncompartmental methods using WinNonlin® Pro Version 5.01 and SAS® Version 8.2. Moreover, the ln-transformed PK parameters Cmax, AUC(0-t), AUC(0-τ), and AUC(0-∞) are presented.
(§5) Plasma concentration and PK parameters for SEQ ID NO.: 2 were listed by subject and summarized by treatment and day using descriptive statistics (mean, standard deviation [SD], coefficient of variation [CV %], standard error of the mean [SEM], sample size [N], minimum [min], maximum [max], and median). Additionally, geometric means and ln-transformed values were provided for Cmax and AUCs. Dose proportionality was evaluated for Days 1 and 7 SEQ ID NO.: 2 data using the following power model: Ln(Y)=β0+β Ln Dose+ε where Y represents the PK parameters AUC(0-28), AUC(0-τ), AUC(0-t), and Cmax. Dose proportionality requires that β=1 for dose-dependent parameters.
(§6) The model was used to calculate the 95% confidence intervals (CI) for the slope of the ln-transformed PK parameters AUCs and Cmax. Dose proportionally was concluded if the 95% CI for the PK parameters included the value of 1.
(§7) For those cases in which dose proportionality could not be concluded within all doses investigated, dose proportionality analysis was performed for the first 3 (by excluding the highest dose) and the last 3 doses (by excluding the lowest dose).

clinical = conditions: human, in vivo; for AUC: AUC0-tau
Procedure: as §3, §4, §5, §6, §7

**Q.** Which preservative efficacy [1] does the source give for `OCc1ccccc1` [Benzyl Alcohol] here?
**A.** The preservative efficacy was “not compliant”.

**Q.** And the “Preservative effectiveness test Results” value [1]?
**A.** The value was “compliant”.

**Q.** What about the “rate of kill against S Aureus” value (Staphylococcus aureus) of the same molecule?
**A.** The value was “insufficient rate of kill”.

**Q.** With `Oc1ccccc1` [Phenol] as the molecule, how does the preservative efficacy [1] read?
**A.** The preservative efficacy was “maintained”.

**Q.** What about the “Preservative effectiveness test Results” value [1] of the same molecule?
**A.** The value was “compliant”.

**Q.** Which results are given for `CC[C@H](C)[C@H](NC(=O)[C@H](CO)NC(=O)[C@H](CCCCN)NC(=O)CNC(=O)[C@H](CCCCN)NC(=O)[C@H](CC(=O)O)NC(=O)[C@H](Cc1cnc[nH]1)NC(=O)[C@H](CC(C)C)NC(=O)[C@H](CC(C)C)NC(=O)[C@H](CCC(N)=O)NC(=O)[C@H](Cc1cnc[nH]1)NC(=O)[C@H](CCC(=O)O)NC(=O)[C@H](CO)NC(=O)[C@@H](NC(=O)[C@H](C)N)C(C)C)C(=O)N[C@@H](CCC(N)=O)C(=O)N[C@@H](CC(=O)O)C(=O)N[C@@H](CC(C)C)C(=O)N[C@@H](CCCNC(=N)N)C(=O)N[C@@H](CCCNC(=N)N)C(=O)N[C@@H](CCCNC(=N)N)C(=O)N[C@@H](CCC(=O)O)C(=O)N[C@@H](CC(C)C)C(=O)N[C@@H](CC(C)C)C(=O)N[C@@H](CCC(=O)O)C(=O)N[C@@H](CCCCN)C(=O)N[C@@H](CC(C)C)C(=O)N[C@@H](CC(C)C)C(=O)NC(C)(C)C(=O)N[C@@H](CCCCN)C(=O)N[C@@H](CC(C)C)C(=O)N[C@@H](Cc1cnc[nH]1)C(=O)N[C@H](C(=O)N[C@@H](C)C(N)=O)[C@@H](C)O` [SEQ ID NO.: 2, [Glu^22,25, Leu^23,28,31, Aib^29, Lys^26,30]hPTHrP(1-34)NH2]?
**A.** solution stability, influence of the preservative [2]: not significantly influenced by the preservative selected; P1NP concentrations in serum, maximum increase above baseline ([3]; 80 μg dose, Days 3, 8, and 14): up to 18±12 ng/mL; 1,25-dihydroxyvitamin D concentrations in serum ([3]; 40 and 80 μg doses, after 2 hours postdose on Day 1 and most of the time on Day 7): steadily rose above the predose levels; serum phosphorus concentrations versus placebo ([3]; Days 1 and 7): below the placebo concentration levels; Serum PTH (1-84) concentrations ([3]; Days 1 and 7, during most of the sampling times): remained below the predose levels and placebo dose; Total calcium concentrations in serum versus reference range ([3]; human, in vivo): remained within the reference range; mean urinary excretion rates of calcium ([4]; Day 1): approximately at predose levels; Mean urinary excretion rates of c-AMP ([4]; Days 1 and 7): increased; Mean urinary excretion rates of creatinine ([4]; Days 1 and 7): fluctuated around the predose levels; Mean urinary excretion rates of phosphorus ([4]; Days 1 and 7): fluctuated around the predose levels; Apparent clearance ([5]; 80 ug): 82.74 to 103.9 L/h; Dose proportionality Slope, AUC (0-inf) ([5]; 80 ug): 0.9957; Dose proportionality Slope, AUC (0-t) ([5]; 80 ug): 0.9071; Dose proportionality Slope, AUC (0-tau) ([5]; 80 ug): 1.141; increases in PK parameters Cmax, AUC(0-f), AUC(0-τ), AUC(0-∞) with dose ([5]; 80 ug): dose-proportional; AUC0-t ([5]; sc, 5 ug): 0.080704 ± 0.030441 ng·h/mL; AUCR ([5]; sc, 5 ug): 0.521 ± 0.111; CL/F ([5]; sc, 5 ug): 28.56 L/h; Cmax ([5]; sc, 5 ug): 0.0408 ± 0.00763 ng/mL; Tmax ([5]; sc, 5 ug): 1.05 (0.514, 1.53) hr; ln (AUC0-inf) ([5]; sc, 5 ug): 5.200 ± 0.3016; ln (AUC0-tau) ([5]; sc, 5 ug): 5.198 ± 0.3007; AUC0-t ([5]; sc, 20 ug): 0.17158 ± 0.082031 ng·h/mL; AUC0-tau ([5]; sc, 20 ug): 0.2282 ± 0.095154 ng·h/mL; AUCR ([5]; sc, 20 ug): 0.828 ± 0.0449; CL/F ([5]; sc, 20 ug): 103.9 ± 53.01 L/h; Cmax ([5]; sc, 20 ug): 0.109 ± 0.0192 ng/mL; Tmax ([5]; sc, 20 ug): 0.512 (0.250, 3.05) hr; ln (AUC0-inf) ([5]; sc, 20 ug): 5.456 ± 0.4957; t1/2 ([5]; sc, 20 ug): 1.05 ± 0.244 h; AUC0-t ([5]; sc, 40 ug): 0.40798 ± 0.2197 ng·h/mL; AUC0-tau ([5]; sc, 40 ug): 0.48188 ± 0.22619 ng·h/mL; AUCR ([5]; sc, 40 ug): 0.838 ± 0.0703; CL/F ([5]; sc, 40 ug): 102.0 ± 53.34 L/h; Cmax ([5]; sc, 40 ug): 0.207 ± 0.0777 ng/mL; Tmax ([5]; sc, 40 ug): 0.492 (0.349, 1.00) hr; ln (AUC0-inf) ([5]; sc, 40 ug): 6.280 ± 0.5203; t1/2 ([5]; sc, 40 ug): 1.43 ± 0.397 h; AUC0-t ([5]; sc, 80 ug): 1.003 ± 0.38345 ng·h/mL; AUC0-tau ([5]; sc, 80 ug): 1.0803 ± 0.40857 ng·h/mL; AUCR ([5]; sc, 80 ug): 0.892 ± 0.0369; CL/F ([5]; sc, 80 ug): 82.74 ± 26.95 L/h; Cmax ([5]; sc, 80 ug): 0.436 ± 0.0688 ng/mL; Tmax ([5]; sc, 80 ug): 0.507 (0.500, 1.00) hr; ln (AUC0-inf) ([5]; sc, 80 ug): 6.855 ± 0.5063; t1/2 ([5]; sc, 80 ug): 1.69 ± 0.425 h; half-life (clinical; mean t1/2): 1.05 to 2.59 h; AUC(0-inf) (clinical; sc, 5 ug): 0.187 ± 0.0545 ng·h/mL; AUC0-t (clinical; sc, 5 ug): 0.0784 ± 0.0455 ng·h/mL; AUC (clinical; sc, 5 ug): 0.187 ± 0.0544 ng·h/mL; CL/F (clinical; sc, 5 ug): 476 mL/min; Cmax (clinical; sc, 5 ug): 0.0431 ± 0.0107 ng/mL; Tmax (clinical; sc, 5 ug): 0.566 h; half-life (clinical; sc, 5 ug, t1/2): 2.59 ± 0.69 h; AUC(0-inf) (clinical; sc, 20 ug): 0.257 ± 0.119 ng·h/mL; AUC0-t (clinical; sc, 20 ug): 0.161 ± 0.111 ng·h/mL; AUC (clinical; sc, 20 ug): 0.257 ± 0.119 ng·h/mL; CL/F (clinical; sc, 20 ug): 1570 mL/min; Cmax (clinical; sc, 20 ug): 0.115 ± 0.0539 ng/mL; Tmax (clinical; sc, 20 ug): 0.296 h; half-life (clinical; sc, 20 ug, t1/2): 1.05 ± 0.314 h; AUC(0-inf) (clinical; sc, 40 ug): 0.593 ± 0.281 ng·h/mL; AUC0-t (clinical; sc, 40 ug): 0.42 ± 0.275 ng·h/mL; AUC (clinical; sc, 40 ug): 0.593 ± 0.281 ng·h/mL; CL/F (clinical; sc, 40 ug): 1400 mL/min; Cmax (clinical; sc, 40 ug): 0.223 ± 0.099 ng/mL; Tmax (clinical; sc, 40 ug): 0.494 h; half-life (clinical; sc, 40 ug, t1/2): 1.65 ± 0.254 h; AUC(0-inf) (clinical; sc, 80 ug): 1.06 ± 0.514 ng·h/mL; AUC0-t (clinical; sc, 80 ug): 0.95 ± 0.494 ng·h/mL; AUC (clinical; sc, 80 ug): 1.05 ± 0.511 ng·h/mL; CL/F (clinical; sc, 80 ug): 1580 mL/min; Cmax (clinical; sc, 80 ug): 0.31 ± 0.0543 ng/mL; Tmax (clinical; sc, 80 ug): 0.752 h; half-life (clinical; sc, 80 ug, t1/2): 2.3 ± 0.715 h
